Experimental data from patent US20220305048A1, “USE OF HEPARIN TO PROMOTE TYPE 1 INTERFERON SIGNALING” (Dana-Farber Cancer Institute, Inc., priority 2019, published 2022).

What was measured:
[1] = test system: B16F10 mouse melanoma cells; Lewis Lung Carcinoma (LLC) mouse non-small-cell lung cancer cells; assay: CXCL10 ELISA of conditioned media, interferons +/- heparin; format: cell-based; details: interferon 5 ng/mL +/- heparin 1 μg/mL, 24 hours
Protocol: (§1) 1 mL of conditioned media from each treatment plate was collected after 24 hr culture unless otherwise specified. The collected media was centrifuged at 1400 RPM for 3 minutes to remove any cellular debris before use in the ELISA. Values represent the average of at least two independent biological replicates.

[2] = test system: BenMen 1 cells; RPPM mouse SCLC and MS428 human mesothelioma cell lines; assay: STING pathway western blot and CXCL10 ELISA with TBK1 or JAK/STAT inhibitor; format: cell-based; details: MRT TBK1 inhibitor 1 μM or 5 μM; ruxolitinib 1 μM
Protocol: FIG. 4A includes immunofluorescent images of fixed hLFB cells after 24 hours of treatment with cyanine-5 (Cy5) labeled 2,3-cGAMP 1 μg/mL+/−heparin 1 μg/mL. The staining represents actin phalloidin, DAPI (4′,6-diamidino-2-phenylindole), and Cy5-labeled cGAMP. FIG. 4B includes a western blot for STING pathway components in BEN-MEN-1 meningioma cells treated for 72 hours with 50 μM ADU+/−heparin 10 μg/mL and MRT TANK-binding kinase-1 (TBK1) inhibitor 5 μM. FIG. 4C includes plots showing CXCL10 ELISA after 24 hours treatment with 2,3-cGAMP (1 μg/mL) or ADU S-100 (50 μM unless otherwise indicated)+/−heparin (1 μg/mL in RPPM or 10 μg/mL in MS428), MRT TBK1 inhibitor 1 μM, or ruxolitinib JAK/STAT inhibitor (“ruxo”; ruxolitinib) 1 μM in RPPM mouse SCLC and MS428 human mesothelioma cell lines. FIG. 4D includes a plot showing the qPCR for Programmed death-ligand 1 (PD-L1) after 24 hours treatment 50 μM ADU+/−heparin 10 μg/mL and MRT TBK1 inhibitor in BEN-MEN-1 meningioma cells. ANOVA p<0.001 for all graphs. *p<0.05 ****p<0.0001 by Bonferroni corrected pairwise comparison.
The serine/threonine protein kinase, TBK1, is a critical regulator in innate immune signaling pathways that lead to the induction of type I interferon (IFN) and interferon-stimulated genes (ISGs). Dysregulation of TBK1 activity is often associated with autoimmune diseases and cancer. […]

[3] = test system: H196 SCLC and MS428 meningioma cells; assay: Luminex cytokine array; format: cell-based, human; details: 5 μM MRT TBK1 inhibitor
Protocol: FIGS. 19A to 19B includes diagrams showing that heparin alters the release of multiple cytokines after STING agonist treatment. […] L2FC=LOG2 fold change.
The influence of heparin (with and without a STING agonist) on IL-6 and IL-8 levels was examined. […] This effect was reversed by MRT TBK1 inhibitor.
Multiplex assays were performed utilizing the Human Cytokine/Chemokine Maganetic Bead Panel (Cat. #HCYTMAG-60K-PX30) on a Luminex MAGPIX system (Merck Millipore). Conditioned media concentrations (pg/ml) for each cytokine were derived from parameter curve fitting models. Fold changes relative to the corresponding control were calculated and plotted as log 2FC.

[4] = test system: 631M/RPPM mouse SCLC cells; assay: CXCL10 ELISA of conditioned media, STING agonists +/- heparins; format: cell-based; details: for interaction between heparin and STING agonist (CXCL10 ELISA): 24 hours, p<0.0001 by 2-WAY ANOVA (FIG. 3C); for interaction between heparin and STING agonist on the amount of CXCL10 in the media: +/- 1 μg/mL heparin, 1 or 10 μg/mL cGAMP, 50 μM ADU, 0.2 mg/ml CMA, 24 hours (FIG. 3A)
Protocol: as §1

[5] = test system: BEN-MEN-1 meningioma cells; assay: CXCL10 ELISA of conditioned media, ADU S-100 dose and time course +/- heparin; format: cell-based; details: 50 μg/mL and 100 μg/mL ADU-S100, heparin 10 μg/mL, 24 hours
Protocol: FIGS. 3A to 3B include plots showing that heparin dose-dependently enhances STING agonist effects across compounds. […] FIG. 3D includes a plot of showing the time course data for BenMen 1 cells with treatment for 3 and 6 days. The data reflects 24 hours treatment prior to collection of conditioned media for CXCL10 ELISA FIG. 3E includes plots showing RPPM mouse SCLC cells treated with 1 μg/mL 2,3-cGAMP and 1 μg/mL unfractionated heparin, low-molecular weight heparin (LMWH), heparin pentasaccharide fondaparinux, 6-desulfated heparin, chondroitin sulfate (CS)+/−the Janus kinase/signal transducers and activators of transcription (JAK/STAT) inhibitor ruxolitinib (ruxo 1 μg/mL) for 24 hours prior to CXCL10 ELISA. H69M human SCLC cells treated with 10 μg/mL 2,3-cGAMP+/−heparin 10 μg/mL or desulfated heparins 2-O desulfated (2DES), N-desulfated (NDES), and 6-O desulfated (6DES) 24 hours prior to CXCL10 ELISA. All panels reflect 24 hours treatment prior to collection of conditioned media for CXCL10 ELISA.
A 24-hour dose response study was also conducted on BEN-MEN-1 meningioma cells (hereafter “BenMen 1 cells”) and RPPM mouse SCLC cells. BenMen 1 cells were treated with various doses of ADU S-100 (0, 10, 20, 30, 50, and 100 μg/mL) either in the presence or absence of heparin (10 μg/mL). […]

[6] = test system: Human lung fibroblasts (hLFB); assay: CXCL10 qPCR, 2,3-cGAMP +/- heparin; format: cell-based; details: 2,3-cGAMP 1 μg/mL, 24 hours
Protocol: FIG. 2 includes plots showing that heparin enhances STING agonist activity. FIG. 2A includes plots showing human lung fibroblasts (hLFB) and H69-mesenchymal (H69M) small cell lung cancer (SCLC) cells treated with 2,3-cGAMP 1 μg/mL+/−heparin 1 μg/mL for 24 hours prior to CXCL10 qPCR and collection of conditioned media for C—X—C motif chemokine 10 (CXCL10) ELISA (enzyme-linked immunosorbent assay). […] THP1=differentiated macrophages. hLFB=human lung fibroblasts. MEF=mouse embryonic fibroblasts. HUE=human umbilical endothelial cells. ANOVA p<0.001 for all figures. *p<0.05 ****p<0.0001 by Bonferroni corrected pairwise comparison.
Also, Human lung fibroblasts (hLFB) were treated with 2,3-cGAMP 1 μg/mL (hereafter referred to as “cGAMP)+/−heparin 1 μg/mL for 24 hours prior to CXCL10 qPCR and collection of conditioned media for CXCL10 ELISA (FIG. 2A).
RNA extraction was performed using the RNeasy Mini Kit (Qiagen, Cat. #74106). RNA samples (1000 ng) were reverse-transcribed into cDNA using Superscript® First-Strand Synthesis SuperMix (Thermo Fisher Scientific, Cat. #1683483). Quantitative real-time PCR was then performed using Power SYBR Green PCR Master Mix (Thermo Fisher Scientific, Cat. #4367659). The sequences of the primers used for qRT-PCR were obtained from previously published literature. Error bars represent technical replicates of each experiment.

IFNg: interferon gamma (R&D systems)
amount of CXCL10 in the media with heparin compared to interferon alone [1]: not seen

O=C(NCCCNc1nc(Nc2cccc(CN3CCOCC3)c2)ncc1C1CC1)C1CCC1 [MRT TBK1 inhibitor, MRT67307]
STING activity after addition of inhibitor to heparin and ADU [2]: reduced the STING activity
effect of heparin plus ADU on cytokines after TBK1 inhibitor [3]: reversed

Nc1ncnc2c1ncn2[C@@H]1O[C@@H]2CO[P@](=O)(S)O[C@@H]3C(O)[C@@H](CO[P@@](=O)(S)O[C@H]2[C@H]1O)O[C@H]3n1cnc2c(N)ncnc21 (stereo partly drawn) [ADU-S100]
interaction between heparin and STING agonist (CXCL10 ELISA) [4]: significant interaction
interaction between heparin and STING agonist on the amount of CXCL10 in the media [4]: significant interaction
STING activity (CXCL10 concentration) in the presence vs absence of heparin [5]: significantly higher STING activity

cyclic GMP-AMP [cGAMP]
STING activity (CXCL10 expression, qPCR), cGAMP in the absence of heparin [6]: negligible STING activity
interaction between heparin and STING agonist (CXCL10 ELISA) [4]: significant interaction
interaction between heparin and STING agonist on the amount of CXCL10 in the media [4]: significant interaction
